One assay deals with Helicobacter pylori. Put plainly: Compound was evaluated for antimicrobial activity against Helicobacter pylori. It counts as functional.
The test system of a further assay is Bacteroides fragilis. Put plainly: Compound was evaluated for antimicrobial activity against Bacteroides fragilis. Format: functional.
A further assay concerns Campylobacter jejuni. Put plainly: Compound was evaluated for antimicrobial activity against Campylobacter jejuni. Format: functional.
For the next assay, the system named is Clostridioides difficile. Put plainly: Compound was evaluated for antimicrobial activity against Clostridium difficile. Format: functional.
In another assay the test system is Neisseria meningitidis. Description: Compound was evaluated for antimicrobial activity against Neisseria meningitidis. Format: functional.
The test system of another assay is Clostridium perfringens. Put plainly: Compound was evaluated for antimicrobial activity against Clostridium perfringens. Format: functional.
Another assay relates to Neisseria gonorrhoeae. Description: Compound was evaluated for antimicrobial activity against Neisseria gonorrhoeae. Format: functional.
The species entered for another assay is Cavia porcellus. Put plainly: Inhibition of histamine-stimulated chronotropic response in the isolated guinea pig right atrium at 1*10e-6 g/mL. It counts as functional, Cardiac atrium.
The test system of a further assay is Rattus norvegicus. Put plainly: Inhibition of histamine-stimulated gastric acid secretion in lumen-perfused stomach of the anaesthetized rats when administered 1 mg/kg intravenously. Format: functional. The note with it: route intravenous.
In a further assay the test system is Canis familiaris. Put plainly: Compound was evaluated for the inhibition of gastrin-stimulated gastric acid secretion in conscious heidenhain pouch dogs when administered 1 mg/kg perorally. The note with it: Canis lupus familiaris, Stomach, route oral. Format: functional.

Values after ≈ are worked out from the molar mass of the structure shown. A value given as a limit tells only on which side of the number the result lay.

`C#CCNC(=N)Nc1nc(-c2ccc(CNC(C)=O)o2)cs1` displayed an MIC with Helicobacter pylori of 8.2 µg/mL (≈ 25.8 µM).

In the assay on Helicobacter pylori, `CCOCCCC/N=C(\N)Nc1nc(-c2ccc(CNC(C)=O)o2)cs1` returned an MIC of 1.1 µg/mL (≈ 2.9 µM).

In the assay on Helicobacter pylori, `CC(=O)NCc1ccc(-c2csc(NC(=N)NC3CCCCC3)n2)o1` yielded a minimal inhibitory concentration (MIC) of 1.06 µg/mL (≈ 2.93 µM).

In the case of `CC(=O)NCc1ccc(-c2csc(NC(=N)NCC3CC3)n2)o1`, the MIC in the assay with Helicobacter pylori turned out to be 1.46 µg/mL (≈ 4.38 µM).

`COCC/N=C(\N)Nc1nc(-c2ccc(CNC(C)=O)o2)cs1`: the minimal inhibitory concentration (MIC) against Helicobacter pylori is 1.45 µg/mL (≈ 4.3 µM).

`CC(=O)NCc1ccc(-c2csc(NC(=N)NCCN3CCCCC3)n2)o1` registered a minimal inhibitory concentration (MIC) against Helicobacter pylori of 27 µg/mL (≈ 69.1 µM).

`CC(=O)NCc1ccc(-c2csc(NC(=N)NCCO)n2)o1`: in the assay on Helicobacter pylori, the MIC was 34 µg/mL (≈ 105 µM).

In the assay with Helicobacter pylori, `CCOCC/N=C(\NCCOCC)Nc1nc(-c2ccc(CNC(C)=O)o2)cs1` registered a minimum inhibitory concentration (MIC) of 81 µg/mL (≈ 191 µM).

`CCCCOCC/N=C(\N)Nc1nc(-c2ccc(CNC(C)=O)o2)cs1`: in the assay on Helicobacter pylori, inhibition of growth (MIC) required 1.43 µg/mL (≈ 3.77 µM).

`C=CCNC(=N)Nc1nc(-c2ccc(CNC(C)=O)o2)cs1` displayed an MIC with Helicobacter pylori of 1.45 µg/mL (≈ 4.54 µM).

`CSCC/N=C(\N)Nc1nc(-c2ccc(CNC(C)=O)o2)cs1` returned a minimum inhibitory concentration (MIC) with Helicobacter pylori of 1.67 µg/mL (≈ 4.72 µM).

Consider `CC1(C)S[C@@H]2[C@H](NC(=O)[C@H](N)c3ccc(O)cc3)C(=O)N2[C@H]1C(=O)O` [AMOXICILLIN], for which the MIC worked out at 2.1 µg/mL (≈ 5.75 µM) against Bacteroides fragilis; 2.2 µg/mL (≈ 6.02 µM) against Campylobacter jejuni; 0.28 µg/mL (≈ 0.766 µM) with Clostridioides difficile; 0.056 µg/mL (≈ 0.153 µM) in the assay on Neisseria meningitidis; 0.021 µg/mL (≈ 0.0575 µM) with Helicobacter pylori; 0.027 µg/mL (≈ 0.0739 µM) in the assay with Clostridium perfringens. Also, in the assay with Neisseria gonorrhoeae, 7.7 µg/mL (≈ 21.1 µM) was the least that counted as inhibitory (MIC).

Take `CN/C(=N\CCSCc1nc[nH]c1C)NC#N` [CIMETIDINE]: the Inhibition in the assay listed under Cavia porcellus stood at 43%. Also, the inhibition in vivo at 1 mg/kg is 22% in the assay with Rattus norvegicus and 53% in the assay on Canis familiaris.

With `Cc1ncc([N+](=O)[O-])n1CCO` [METRONIDAZOLE], the MIC with Bacteroides fragilis was 0.59 µg/mL (≈ 3.45 µM); with Campylobacter jejuni, 30 µg/mL (≈ 175 µM); in the assay with Clostridioides difficile it was 0.2 µg/mL (≈ 1.17 µM); against Neisseria meningitidis, more than 100 µg/mL; in the assay on Helicobacter pylori, 5.4 µg/mL (≈ 31.6 µM); in the assay with Clostridium perfringens it was 1.75 µg/mL (≈ 10.2 µM). In the assay on Neisseria gonorrhoeae, the MIC was more than 100 µg/mL.

Consider BISMUTH SUBSALICYLATE, for which the MIC in the assay on Bacteroides fragilis was 50 µg/mL; in the assay with Campylobacter jejuni it was 7.4 µg/mL; against Clostridioides difficile it was 50 µg/mL; in the assay on Neisseria meningitidis it was 12.5 µg/mL; with Helicobacter pylori, 8.7 µg/mL; against Clostridium perfringens it was more than 100 µg/mL. In addition, the MIC with Neisseria gonorrhoeae stood at 4.7 µg/mL.

For the origin of these results see ChEMBL document CHEMBL1130815, “Anti-Helicobacter pylori agents. 2. Structure activity relationships in a new series of 2-alkylguanidino-4-furylthiazoles” (1998).
